According to paper PMC7010297, “How the initiating ribosome copes with ppGpp to translate mRNAs” (PLoS Biology, 2020):
“And” between values parts separate entries of the source, which are not always exact repeats. Equal values may be shown once.

Biological target: T1, IF2-bound 30S IC (Escherichia coli, UniProt P0A705)
T1 construct: 6xHis (N); made in house
Assay: 30S IC formation by MST, guanosine nucleotide titration;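 as to MST Average: lower thermophoresis signal means Bpy-tRNAi dissociation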;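 as to MST Replicates (a.u.): lower thermophoresis signal means Bpy-tRNAi dissociation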
Type: binding
Conditions: for Kd: KD of GTP for the 30S IC
Text: To monitor the interaction of initiator tRNA and 30S ribosomal subunits, we used Microscale Thermophoresis (MST) with a fluorescently labelled initiator tRNA (Bpy-tRNAi) (Fig 1B). MST allows to measure fluorescence in a constrained space. Changes on the readout derive from molecular drifts resulting from small thermal equilibrium perturbations. Upon equilibrium perturbations, the patterns of Bpy-tRNAi migration away from the observation space are related to bound and unbound states (Fig 1B). […] On the contrary, a decrease in thermophoresis indicated the dissociation of Bpy-tRNAi. The relation between fluorescence measured at both equilibriums (Ff to Fi, after and prior to the perturbation, respectively) as a function of ligand concentration allowed to determine dissociation constants of the interaction (Fig 1C).
Continuous lines indicate nonlinear regression fittings with a quadratic equation. Three measurements were performed; mean and standard deviation are plotted (S1 Data). (B) as (A) to measure the concentration dependence for each tested guanosine nucleotide at constant IF2 (1 μM). […] Continuous lines show best fits using exponential functions. (D) Formation of 70S IC as measured by Bpy-tRNAi accommodation in the P site of the ribosome; 0.1 μM 30S ICs were formed with Bpy-tRNAi and rapidly mixed with 0.3 μM 50S subunits on a stopped-flow apparatus as described in [14]. Colors are as in (C). Continuous lines show best fits using an exponential function for a single reaction step. Each stopped-flow trace results from the mean of 5 to 7 replicates.
MST was calculated from the respective fluorescence time dependencies (S3 Fig). […] Symbols as in (B). […] Continuous lines indicate nonlinear regression fittings with quadratic (B and E) or same-site competition (G) functions. Three measurements were performed; mean and standard deviations are plotted (S1 Data).

T1 sequence (P0A705 whole entry, looked up): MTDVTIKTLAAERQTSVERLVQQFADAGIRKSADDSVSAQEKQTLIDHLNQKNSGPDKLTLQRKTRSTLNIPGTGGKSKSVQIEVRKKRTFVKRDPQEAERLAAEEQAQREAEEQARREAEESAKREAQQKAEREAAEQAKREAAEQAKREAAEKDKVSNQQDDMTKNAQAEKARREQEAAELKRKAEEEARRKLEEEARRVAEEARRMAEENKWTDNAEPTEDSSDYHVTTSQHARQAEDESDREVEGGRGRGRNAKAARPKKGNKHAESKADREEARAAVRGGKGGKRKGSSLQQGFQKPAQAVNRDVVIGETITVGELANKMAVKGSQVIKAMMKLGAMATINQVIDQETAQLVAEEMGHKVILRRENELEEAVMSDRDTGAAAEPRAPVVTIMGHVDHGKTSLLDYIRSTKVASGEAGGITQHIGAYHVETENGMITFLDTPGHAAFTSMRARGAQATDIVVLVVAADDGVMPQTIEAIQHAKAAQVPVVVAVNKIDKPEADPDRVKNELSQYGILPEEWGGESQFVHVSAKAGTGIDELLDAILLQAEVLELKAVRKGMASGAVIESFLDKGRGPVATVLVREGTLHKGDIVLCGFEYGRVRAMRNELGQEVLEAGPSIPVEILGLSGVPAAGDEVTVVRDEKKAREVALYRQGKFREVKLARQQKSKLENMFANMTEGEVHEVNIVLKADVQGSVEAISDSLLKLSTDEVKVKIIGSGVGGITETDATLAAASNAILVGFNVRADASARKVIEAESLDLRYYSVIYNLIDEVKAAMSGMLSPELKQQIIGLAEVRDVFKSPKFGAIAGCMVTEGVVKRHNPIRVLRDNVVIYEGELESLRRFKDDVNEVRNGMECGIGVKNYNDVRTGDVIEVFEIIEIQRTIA

Nc1nc2c(ncn2[C@@H]2O[C@H](COP(=O)(O)OP(=O)(O)OP(=O)(O)O)[C@@H](O)[C@H]2O)c(=O)[nH]1 [GTP, guanosine triphosphate]
MST Average (Fig 2B, nucleotide 0.005 µM): 931.90 a.u.
MST Replicates (a.u.) (Fig 2B, nucleotide 0.005 µM, constant IF2 (1 μM)): 929.16 a.u. and 932.86 a.u. and 933.70 a.u.
MST Average (Fig 2B, nucleotide 0.01 µM): 935.48 a.u.
MST Replicates (a.u.) (Fig 2B, nucleotide 0.01 µM): 935.39 a.u. and 935.49 a.u. and 935.55 a.u.
MST Average (Fig 2B, nucleotide 0.02 µM): 931.90 a.u.
MST Replicates (a.u.) (Fig 2B, nucleotide 0.02 µM): 930.17 a.u. and 932.09 a.u. and 933.42 a.u.
MST Average (Fig 2B, nucleotide 0.04 µM): 934.94 a.u.
MST Replicates (a.u.) (Fig 2B, nucleotide 0.04 µM): 935.42 a.u. and 934.45 a.u. and 934.96 a.u.
MST Average (Fig 2B, nucleotide 0.08 µM): 940.63 a.u.
MST Replicates (a.u.) (Fig 2B, nucleotide 0.08 µM): 937.42 a.u. and 941.79 a.u. and 942.68 a.u.
MST Average (Fig 2B, nucleotide 0.16 µM): 949.92 a.u.
MST Replicates (a.u.) (Fig 2B, nucleotide 0.16 µM): 950.95 a.u. and 949.65 a.u. and 949.17 a.u.
MST Average (Fig 2B, nucleotide 0.31 µM): 960.63 a.u.
MST Replicates (a.u.) (Fig 2B, nucleotide 0.31 µM): 959.49 a.u. and 961.54 a.u. and 960.87 a.u.
MST Average (Fig 2B, nucleotide 0.63 µM): 975.44 a.u.
MST Replicates (a.u.) (Fig 2B, nucleotide 0.63 µM): 975.52 a.u. and 975.43 a.u. and 975.39 a.u.
MST Average (Fig 2B, nucleotide 1.25 µM): 984.37 a.u.
MST Replicates (a.u.) (Fig 2B, nucleotide 1.25 µM): 979.99 a.u. and 986.37 a.u. and 986.76 a.u.
MST Average (Fig 2B, nucleotide 2.50 µM): 1006.59 a.u.
MST Replicates (a.u.) (Fig 2B, nucleotide 2.50 µM): 1003.01 a.u. and 1008.37 a.u. and 1008.39 a.u.
MST Average (Fig 2B, nucleotide 5.00 µM): 1020.42 a.u.
MST Replicates (a.u.) (Fig 2B, nucleotide 5.00 µM): 1016.52 a.u. and 1022.52 a.u. and 1022.21 a.u.
MST Average (Fig 2B, nucleotide 10.00 µM): 1023.06 a.u.
MST Replicates (a.u.) (Fig 2B, nucleotide 10.00 µM): 1019.11 a.u. and 1024.56 a.u. and 1025.50 a.u.
MST Average (Fig 2B, nucleotide 20.00 µM): 1004.40 a.u.
MST Replicates (a.u.) (Fig 2B, nucleotide 20.00 µM): 999.60 a.u. and 1006.70 a.u. and 1006.89 a.u.
Kd (30S IC programmed with mInfA): 1900 ± 200 nM
Kd (30S IC programmed with mTufA): 280 ± 40 nM
MST Average (mInfA, GTP 0.061 μM): 967.92 a.u.
MST Replicates (a.u.) (mInfA, GTP 0.061 μM): 966.87 a.u. and 968.59 a.u. and 968.30 a.u.
MST Average (mInfA, GTP 0.122 μM): 967.19 a.u.
MST Replicates (a.u.) (mInfA, GTP 0.122 μM): 972.17 a.u. and 974.24 a.u. and 955.18 a.u.
MST Average (mInfA, GTP 0.244 μM): 974.83 a.u.
MST Replicates (a.u.) (mInfA, GTP 0.244 μM): 973.77 a.u. and 975.34 a.u. and 975.39 a.u.
MST Average (mInfA, GTP 1.953 μM): 1006.13 a.u.
MST Average (mInfA, GTP 3.906 μM): 1021.73 a.u.
MST Replicates (a.u.) (mInfA, GTP 3.906 μM): 1021.53 a.u. and 1022.43 a.u. and 1021.24 a.u.
MST Average (mInfA, GTP 7.812 μM): 1043.12 a.u.
MST Replicates (a.u.) (mInfA, GTP 7.812 μM): 1042.43 a.u. and 1043.93 a.u. and 1042.99 a.u.
MST Average (mInfA, GTP 15.625 μM): 1059.58 a.u.
MST Replicates (a.u.) (mInfA, GTP 15.625 μM): 1058.78 a.u. and 1060.65 a.u. and 1059.32 a.u.
MST Average (mInfA, GTP 31.25 μM): 1066.52 a.u.
MST Replicates (a.u.) (mInfA, GTP 31.25 μM): 1066.71 a.u. and 1066.40 a.u. and 1066.45 a.u.
MST Average (mMF1, GTP 0.061 μM): 955.96 a.u.
MST Replicates (a.u.) (mMF1, GTP 0.061 μM): 954.37 a.u. and 956.60 a.u. and 956.92 a.u.
MST Average (mMF1, GTP 0.122 μM): 960.57 a.u.
